In patent publication US4383113A, “Agricultural sulfonamides” (E. I. Du Pont de Nemours and Company, priority 1981, dated 1983):

Legend:
Test in all cases: Test A post-emergence
Parameters in all cases: key: 0 = no effect, 10 = maximum effect; letter = response symbol
Settings in all cases: 0.4 kg/ha
cotton = assay type: in vivo
Method in brief: (§1)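 Seeds and tubers were treated preemergence in a growth medium with compound in a nonphytotoxic solvent, against untreated controls; emerged plants such as two-leaf barnyardgrass and five-leaf cotton were sprayed postemergence, against solvent-sprayed controls. After sixteen days in a greenhouse, response was rated visually from 0 to 10.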

wheat = assay type: in vivo
Method in brief: as §1

corn = assay type: in vivo
Method in brief: as §1

cassia = assay type: in vivo, Cassia tora
Method in brief: as §1

cocklebur = assay type: in vivo, Xanthium spp.
Method in brief: as §1

bush bean = assay type: in vivo, bush beans
wild oats = assay type: in vivo, Avena fatua
Method in brief: as §1

morningglory = assay type: in vivo, Ipomoea spp.
Method in brief: as §1

nutsedge = assay type: in vivo, Cyperus rotundus
Method in brief: as §1

soybean = assay type: in vivo
Method in brief: as §1

crabgrass = assay type: in vivo, Digitaria spp.
Text: (§2) The activity of these compounds was discovered in a number of greenhouse and field tests. The ratings are based on a numerical scale extending from 0=no effect, to 10=maximum effect. The accompanying descriptive symbols have the following meanings:
(§3) Seeds of crabgrass (Digitaria spp.), barnyardgrass (Echinochloa crusgalli), wild oats (Avena fatua), cassia (Cassia tora), morningglory (Ipomoea spp.), cocklebur (Xanthium spp.), sorghum, corn, soybean, rice, wheat and nutsedge tubers (Cyperus rotundus) were planted in a growth medium and treated preemergence with a nonphytotoxic solvent solution of the compounds of Table XII. Other batches of seeds and tubers for all of the foregoing weed and crop plants were planted at the same time as controls. The control plantings were untreated; i.e., neither any compound nor any solvent was applied. At the same time, cotton having five leaves (including cotyledonary ones), bush beans with the third trifoliate leaf expanding, crabgrass with two leaves, barnyardgrass with two leaves, wild oats with two leaves, cassia with three leaves (including cotyledonary ones), morningglory with four leaves (including the cotyledonary ones), cocklebur with four leaves (including the cotyledonary ones), sorghum with four leaves, corn with four leaves, soybean with two cotyledonary leaves, rice with three leaves, wheat with one leaf, and nutsedge with three-five leaves were sprayed with a nonphytotoxic solvent solution of the compounds of Table XII. Other groups of all the same weed and crop plants were sprayed with the same nonphytotoxic solvent so as to provide control plants. Preemergence and postemergence treated plants and controls were maintained in a greenhouse for sixteen days, then all treated plants were compared with their respective controls and rated visually for response to treatment.

sorghum = assay type: in vivo
Method in brief: as §1

barnyardgrass = assay type: in vivo, Echinochloa crusgalli
Text: as §2, §3

rice = assay type: in vivo
Method in brief: as §1

## COc1nc(C)nc(NC(=O)NS(=O)(=O)c2ccccc2C(=O)OCCCl)n1 [drawing 426]
cotton
  response rating: 9C
wheat
  response rating: 1C
corn
  response rating: 9C
cassia
  response rating: 9C
cocklebur
  response rating: 10C
Bush bean
  response rating: 9C
Wild oats
  response rating: 4G
morningglory
  response rating: 10C
nutsedge
  response rating: 9C

## COCCc1nc(NC(=O)NS(=O)(=O)c2ccccc2C(=O)OC)nc(OC)n1 [drawing 474]
cotton
  response rating: 9C
wheat
  response rating: 1C
soybean
  response rating: 9C
corn
  response rating: 9C
crabgrass
  response rating: 9C
Bush bean
  response rating: 9C
morningglory
  response rating: 10C

## COc1cc(C)nc(NC(=O)NS(=O)(=O)c2ccccc2C(=O)OCCOc2ccccc2)n1 [drawing 461]
cotton
  response rating: 9C
soybean
  response rating: 9C
sorghum
  response rating: 8G
crabgrass
  response rating: 4G
cocklebur
  response rating: 10C
Bush bean
  response rating: 9C
morningglory
  response rating: 9C
barnyardgrass
  response rating: 9C
nutsedge
  response rating: 8G

## COc1cc(C)nc(NC(=O)NS(=O)(=O)c2ccccc2C(=O)NCc2ccccc2)n1 [drawing 464]
cotton
  response rating: 9C
wheat
  response rating: 9C
soybean
  response rating: 9C
corn
  response rating: 10C
sorghum
  response rating: 9C
cocklebur
  response rating: 9C
Bush bean
  response rating: 9C
Wild oats
  response rating: 9C
morningglory
  response rating: 10C
barnyardgrass
  response rating: 9C

## COc1cc(C)nc(NC(=O)NS(=O)(=O)c2ccccc2C(=O)OCCCl)n1 [drawing 421]
cotton
  response rating: 9C
corn
  response rating: 10C
sorghum
  response rating: 9C
cassia
  response rating: 10C
cocklebur
  response rating: 10C
Bush bean
  response rating: 9C
morningglory
  response rating: 10C
barnyardgrass
  response rating: 10C
nutsedge
  response rating: 10C

## COc1cc(C)nc(NC(=O)NS(=O)(=O)c2ccccc2C(=O)SCc2ccccc2)n1 [drawing 475]
cotton
  response rating: 9C
soybean
  response rating: 8C
corn
  response rating: 9C
cassia
  response rating: 9C
cocklebur
  response rating: 9C
Bush bean
  response rating: 9C
morningglory
  response rating: 10C
barnyardgrass
  response rating: 9C

## CNC(=O)c1ccccc1S(=O)(=O)NC(=O)Nc1nc(C)cc(OC)n1 [drawing 466]
cotton
  response rating: 10C
wheat
  response rating: 9C
soybean
  response rating: 9C
corn
  response rating: 10C
sorghum
  response rating: 10C
crabgrass
  response rating: 9C
cassia
  response rating: 9C
cocklebur
  response rating: 9C
Bush bean
  response rating: 9C
Wild oats
  response rating: 9C
morningglory
  response rating: 10C
barnyardgrass
  response rating: 9C
nutsedge
  response rating: 10C

## COc1cc(OC)nc(NC(=O)NS(=O)(=O)c2ccccc2C(=O)OCCCl)n1 [drawing 420]
cotton
  response rating: 9C
soybean
  response rating: 10C
sorghum
  response rating: 10C
cassia
  response rating: 9C
cocklebur
  response rating: 10C
Bush bean
  response rating: 9C
morningglory
  response rating: 10C
barnyardgrass
  response rating: 10C
nutsedge
  response rating: 9C

## COc1nc(C)nc(NC(=O)NS(=O)(=O)c2ccccc2C(=O)OC2CCCCCCC2)n1 [drawing 456]
cotton
  response rating: 9C
wheat
  response rating: 2G
corn
  response rating: 9C
cassia
  response rating: 9C
cocklebur
  response rating: 9C
Bush bean
  response rating: 9C
Wild oats
  response rating: 4G
morningglory
  response rating: 10C
nutsedge
  response rating: 4G

## COc1cc(C)nc(NC(=O)NS(=O)(=O)c2ccccc2C(=O)SC)n1 [drawing 477]
cotton
  response rating: 9C
soybean
  response rating: 9C
corn
  response rating: 9C
sorghum
  response rating: 9C
cassia
  response rating: 9C
cocklebur
  response rating: 9C
Bush bean
  response rating: 9C
morningglory
  response rating: 9C
barnyardgrass
  response rating: 9C

## CCOCCSc1cc(C)nc(NC(=O)NS(=O)(=O)c2ccccc2C(=O)OC)n1 [drawing 469]
wheat
  response rating: 6G
corn
  response rating: 9H
sorghum
  response rating: 9G
rice
  response rating: 8G
cocklebur
  response rating: 2C
Bush bean
  response rating: 9C
nutsedge
  response rating: 8G

## COc1nc(NC(=O)NS(=O)(=O)c2ccccc2C(=O)OC2CCCCC2)nc(OC)n1 [drawing 432]
wheat
  response rating: 0
corn
  response rating: 6H
sorghum
  response rating: 3G
rice
  response rating: 2G
crabgrass
  response rating: 0
cassia
  response rating: 5C
Wild oats
  response rating: 0
nutsedge
  response rating: 2G

## CCCCCCOC(=O)c1ccccc1S(=O)(=O)NC(=O)Nc1nc(C)cc(COC)n1 [drawing 471]
cotton
  response rating: 2C
wheat
  response rating: 0
soybean
  response rating: 2C
crabgrass
  response rating: 0
cassia
  response rating: 1C
Wild oats
  response rating: 0
morningglory
  response rating: 2C
barnyardgrass
  response rating: 3C

## COC(=O)c1ccccc1S(=O)(=O)NC(=O)Nc1nc(OC)nc(OCC(F)(F)F)n1 [drawing 473]
cotton
  response rating: 9C
corn
  response rating: 10C
crabgrass
  response rating: 3G
cassia
  response rating: 10C
cocklebur
  response rating: 10C
Bush bean
  response rating: 9C
morningglory
  response rating: 10C

## C=CCCC(C)OC(=O)c1ccccc1S(=O)(=O)NC(=O)Nc1nc(C)nc(OC)n1 (stereo not shown) [drawing 455]
cotton
  response rating: 9C
soybean
  response rating: 9C
corn
  response rating: 9C
crabgrass
  response rating: 9C
cassia
  response rating: 9C
cocklebur
  response rating: 10C
Bush bean
  response rating: 9C
morningglory
  response rating: 10C
nutsedge
  response rating: 7G

## COc1nc(C)nc(NC(=O)NS(=O)(=O)c2ccccc2C(=O)OC(C)C)n1 [drawing 425]
cotton
  response rating: 9C
wheat
  response rating: 2C
corn
  response rating: 10C
cassia
  response rating: 10C
cocklebur
  response rating: 10C
Bush bean
  response rating: 9C
morningglory
  response rating: 10C
nutsedge
  response rating: 10C

## COC(=O)c1cc(Cl)ccc1S(=O)(=O)NC(=O)Nc1nc(C)cc(OC)n1 [drawing 434]
corn
  response rating: 9H
rice
  response rating: 9C
crabgrass
  response rating: 3G
cassia
  response rating: 9C
cocklebur
  response rating: 10C
morningglory
  response rating: 10C

## CCOCCOC(=O)c1ccccc1S(=O)(=O)NC(=O)Nc1nc(Cl)cc(Cl)n1 [drawing 453]
cotton
  response rating: 1C
wheat
  response rating: 2G
crabgrass
  response rating: 2C
cassia
  response rating: 0
cocklebur
  response rating: 5C
Wild oats
  response rating: 1C
morningglory
  response rating: 0
nutsedge
  response rating: 0

## COc1cc(C)nc(NC(=O)NS(=O)(=O)c2ccccc2C(=O)OC(C)CCl)n1 (stereo not shown) [drawing 478]
cotton
  response rating: 9C
wheat
  response rating: 8C
corn
  response rating: 9C
sorghum
  response rating: 9C
crabgrass
  response rating: 9C
cassia
  response rating: 10C
cocklebur
  response rating: 9C
Wild oats
  response rating: 8C
morningglory
  response rating: 10C
barnyardgrass
  response rating: 10C
nutsedge
  response rating: 9C

## COC(=O)c1ccccc1S(=O)(=O)NC(=O)Nc1nc(C)cc(OC)n1 [drawing 413]
cotton
  response rating: 9C
wheat
  response rating: 9C
soybean
  response rating: 9C
corn
  response rating: 10C
sorghum
  response rating: 9C
cassia
  response rating: 9C
cocklebur
  response rating: 9C
Bush bean
  response rating: 9C
Wild oats
  response rating: 9C
morningglory
  response rating: 10C
barnyardgrass
  response rating: 9C
nutsedge
  response rating: 9C

## COC(=O)c1cc(F)ccc1S(=O)(=O)NC(=O)Nc1nc(C)nc(OC)n1 [drawing 450]
wheat
  response rating: 0
corn
  response rating: 9C
rice
  response rating: 9C
crabgrass
  response rating: 9C
cassia
  response rating: 9C
Bush bean
  response rating: 9C
Wild oats
  response rating: 0
morningglory
  response rating: 9C
